Test results published in patent US4873237A, “2,3-dihydro- thiazolo- and thiazino- benzimidazoles as atni-hyper secretion agents” (John Wyeth & Brother Limited, priority 1983, dated 1989).

Key:
[1] = tested on: Male rats; experiment: stress-induced erosion test of Senay and Levine (anti-ulcer activity); assay type: in vivo; settings: dosed orally, cold restraint 3 hours
Protocol: Anti-ulcer activity was determined by the stressinduced erosion test of Senay and Levine, Proc. Soc. Exp. Biol. Med., 124, 1221-3 (1967). The procedure used was as follows.
Male rats, weighing between 80 and 120 gms. were fasted overnight with water ad lib. The rats were then divided into groups of six and dosed orally with the test drug in the form of a solution or with the vehicle alone, 0.5% carboxymethylcellulose, in a volume of 10ml/kg.
After 30 minutes the rats were inserted into aluminium restraining tubes measuring 15/8 inches in diameter by 5 inches and placed in the cold (4±1° C.) for 3 hours. Immediately after cold exposure the rats were killed with intracranial alcohol and their stomachs excised and opened along the greater curvature. Each stomach was washed gently free of contents with warm tap water and pinned out on a board. The condition of the gastric mucosa was then scored from 0 to 6 on the following scale:
The maximum possible score for each animal was 6 and for the group 36. Decrease in ulcer formation was calculated as a percentage of the control score, i.e. [formula] The statistical significance of the effect is assessed by Student's t-test.

[2] = target: T1, H^+ /K^+ ATPase (Oryctolagus cuniculus, UniProt P27112); experiment: 14C-aminopyrine uptake in rabbit isolated gastric glands stimulated by DBcAMP or high K+; assay type: cell-based; settings: at 10^-4 M, read-out: % Inhibition to stimulation by K^+
T1 construct: Rabbit gastric glands are isolated from gastric mucosa from the corpus region of the stomach; from tissue; host or cells: rabbit isolated gastric glands (gastric mucosa, corpus region of the stomach)
Protocol: Compounds of formula I were also tested for anti-secretory activity by their ability to inhibit the highly specific proton transporting enzyme H^+ /K^+ ATPase.
Potential H^+ /K^+ ATPase inhibitors were evaluated by a technique involving the measurement of aminopyrine accumulation in rabbit isolated gastric glands. Aminopyrine accumulates in acid-secreting cells; therefore, uptake of aminopyrine is increased by secretagogues and an inhibitor of acid secretion will reduce the response to one or more secretagogues depending upon its site of action. Compounds which reduce the response to dibutyryl cyclic adenosine monophosphate (DBcAMP) stimulation are assumed to have an intracellular site of action; and those which reduce the response to both DBcAMP and high potassium ion concentration (K^+) are thought to have an intracellular site of action at the secretory surface of the parietal cell, involving the highly specific proton-transporting enzyme, H^+ /K^+ ATPase.
The following test procedure is used: […]
Compounds are tested at a concentration of 10^-4 M, initially, and in some cases at lower concentrations, for their ability to inhibit ^14 C-aminopyrine uptake in gastric glands, stimulated by DBcAMP and high K^+ respectively. Results are expressed as the % inhibition of the maximum response to the secretagogue induced by the test compound. […]

T1 sequence (P27112 2-1035 limits assumed): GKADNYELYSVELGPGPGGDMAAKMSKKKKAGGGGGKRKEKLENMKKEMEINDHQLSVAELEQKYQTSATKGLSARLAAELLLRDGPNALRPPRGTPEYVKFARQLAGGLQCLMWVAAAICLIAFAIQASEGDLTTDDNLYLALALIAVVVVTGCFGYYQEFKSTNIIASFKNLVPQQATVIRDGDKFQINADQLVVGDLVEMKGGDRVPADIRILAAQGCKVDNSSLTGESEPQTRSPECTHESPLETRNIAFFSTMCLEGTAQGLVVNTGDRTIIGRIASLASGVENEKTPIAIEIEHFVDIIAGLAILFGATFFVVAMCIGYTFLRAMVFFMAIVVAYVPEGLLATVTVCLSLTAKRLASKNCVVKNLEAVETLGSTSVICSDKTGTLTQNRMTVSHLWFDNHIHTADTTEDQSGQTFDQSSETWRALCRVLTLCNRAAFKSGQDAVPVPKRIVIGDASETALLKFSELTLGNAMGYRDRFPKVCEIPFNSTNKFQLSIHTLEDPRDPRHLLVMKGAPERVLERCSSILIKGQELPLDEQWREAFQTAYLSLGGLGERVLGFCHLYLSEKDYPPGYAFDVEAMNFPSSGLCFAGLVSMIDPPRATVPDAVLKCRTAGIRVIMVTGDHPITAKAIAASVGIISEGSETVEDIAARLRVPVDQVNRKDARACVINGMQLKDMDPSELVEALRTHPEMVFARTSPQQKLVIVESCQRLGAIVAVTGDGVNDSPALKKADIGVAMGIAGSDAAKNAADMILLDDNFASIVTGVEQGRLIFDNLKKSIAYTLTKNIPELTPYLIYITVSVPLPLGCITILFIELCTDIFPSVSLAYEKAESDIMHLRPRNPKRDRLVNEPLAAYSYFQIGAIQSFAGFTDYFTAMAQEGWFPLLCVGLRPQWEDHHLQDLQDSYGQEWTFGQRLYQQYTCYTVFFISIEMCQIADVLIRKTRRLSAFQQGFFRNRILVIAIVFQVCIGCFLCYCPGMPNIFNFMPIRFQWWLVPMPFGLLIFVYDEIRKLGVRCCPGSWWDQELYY
T1 sequence (P18597 whole entry partner): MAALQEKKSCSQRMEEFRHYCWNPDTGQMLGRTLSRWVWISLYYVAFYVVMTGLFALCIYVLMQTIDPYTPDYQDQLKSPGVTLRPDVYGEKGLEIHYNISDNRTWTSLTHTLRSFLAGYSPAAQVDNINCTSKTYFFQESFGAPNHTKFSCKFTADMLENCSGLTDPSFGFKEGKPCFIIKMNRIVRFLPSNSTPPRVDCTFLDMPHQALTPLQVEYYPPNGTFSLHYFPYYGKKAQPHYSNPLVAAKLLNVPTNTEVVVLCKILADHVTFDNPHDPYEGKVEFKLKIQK

| inhibition at 100 µM [2] | SMILES | Inhibition (decrease in ulcer formation as percentage of control score) ([1]; dose 30 mg/kg) | Inhibition (decrease in ulcer formation as percentage of control score) ([1]; dose 100 mg/kg) |
| --- | --- | --- | --- |
| – | c1ccc(C2Cn3c(nc4ccccc43)S2)nc1 (centres unmarked) [Example 1, 2,3-Dihydro-2-(2-pyridyl)thiazolo[3,2-a]benzimidazole] | 86% | 75% |
| – | c1ccc(C2Cn3c(nc4ccccc43)S2)cc1 (centres unmarked) [Example 3, 2,3-Dihydro-2-phenylthiazolo[3,2-a]benzimidazole] | – | 74% |
| 74% | Clc1cc2nc3n(c2cc1Cl)CC(c1ccccn1)S3 (centres unmarked) [Example 8, 6,7-Dichloro-2,3-dihydro-2-(2-pyridyl)thiazolo[3,2-a]benzimidazole] | – | – |
| – | Cc1cc2nc3n(c2cc1C)CC(c1ccccn1)S3 (centres unmarked) [Example 9, 2,3-Dihydro-6,7-dimethyl-2-(2-pyridyl)thiazolo[3,2-a]benzimidazole] | – | 82% |
